Results: PMC10538245, “Fragment merging approach for design, synthesis, and biological assessment of urea/acetyl hydrazide clubbed thienopyrimidine derivatives as GSK-3β inhibitors” (BMC Chemistry, 2023)

Assays:
T-47D = assay: NCI 60-cell line one dose antiproliferative assay; assay type: cell-based; conditions: Homo sapiens, T47D, Breast Cancer, 10 µM one dose, read-out: Percent inhibition (cell growth inhibition %)
Text: (§1) The National Cancer Institute "NCI", NIH, Bethesda, Maryland, USA (www.dtp.nci.nih.gov) chose six of the final compounds for the Developmental Therapeutic Program (DTP), codes (5a, 5b, 5c, 5d, 6a, 6b). The NCI screening service will favor compounds with drug-like modes of action based on computer-aided design. Selection The criterion for screening is the possibility of the submitted compounds to provide diversity to the NCI small molecule chemical collection. This screen employs 60 different Leukemia, melanoma, and additional tumor cell lines of the human from brain, kidney, lung, ovary, colon, breast, and prostate cancers. All compounds were picked based on their NCI codes. NSC: D-820696/1, NSC: D-820697/1, NSC: D-820698/1, NSC: D-820699/1, NSC: D-820700/1, NSC: D-820701/1. The initial 10 µM one dose percent inhibition assay was performed on the entire NCI 60 cell panel to examine the different chemotypes of this work. The results are presented as a percentage of cell growth on each of the 60 NCI cell line panels for each of the investigated substances in Table 2.
(§2) The NCI cancer screening procedure includes a comparison of all substances to the sixty NCI cell line panel representing leukemia, NSCLC, cell lines from breast cancer, prostate cancer, melanoma, CNS cancer, renal cancer, ovarian cancer, and colon cancer at a single point of 10 uM. The results of the single-dose screen can be presented using a mean graph.

A549/ ATCC = assay: NCI 60-cell line one dose antiproliferative assay; assay type: cell-based; conditions: Homo sapiens, Non-Small Cell Lung Cancer, 10 µM one dose, read-out: Percent inhibition (cell growth inhibition %)
Text: as §1, §2

NCI-H226 = assay: NCI 60-cell line one dose antiproliferative assay; assay type: cell-based; conditions: Homo sapiens; NCI-H226, Non-Small Cell Lung Cancer, 10 µM one dose; read-out: Percent inhibition (cell growth inhibition %)
Text: as §1, §2

NCI-H522 = assay: NCI 60-cell line one dose antiproliferative assay; assay type: cell-based; conditions: Homo sapiens; NCI-H522, Non-Small Cell Lung Cancer, 10 µM one dose; read-out: Percent inhibition (cell growth inhibition %)
Text: as §1, §2

RXF 393 = assay: NCI 60-cell line one dose antiproliferative assay; assay type: cell-based; conditions: Homo sapiens; RXF 393, Renal Cancer, 10 µM one dose; read-out: Percent inhibition (cell growth inhibition %)
Text: as §1, §2

HS 578 T = assay: NCI 60-cell line one dose antiproliferative assay; assay type: cell-based; conditions: Homo sapiens, Breast Cancer, 10 µM one dose, read-out: Percent inhibition (cell growth inhibition %)
Text: as §1, §2

MDA-MB-468 = assay: NCI 60-cell line one dose antiproliferative assay; assay type: cell-based; conditions: Homo sapiens; MDA-MB-468, Breast Cancer, 10 µM one dose; read-out: Percent inhibition (cell growth inhibition %)
Text: as §1, §2

SNB-75 = assay: NCI 60-cell line one dose antiproliferative assay; assay type: cell-based; conditions: Homo sapiens; SNB-75, CNS Cancer, 10 µM one dose; read-out: Percent inhibition (cell growth inhibition %)
Text: as §1, §2

SK-MEL-5 = assay: NCI 60-cell line one dose antiproliferative assay; assay type: cell-based; conditions: Homo sapiens; SK-MEL-5, Melanoma, 10 µM one dose; read-out: Percent inhibition (cell growth inhibition %)
Text: as §1, §2

NCI-H460 = assay: NCI 60-cell line one dose antiproliferative assay; assay type: cell-based; conditions: Homo sapiens; NCI-H460, Non-Small Cell Lung Cancer, 10 µM one dose; read-out: Percent inhibition (cell growth inhibition %)
Text: as §1, §2

MCF7 = assay: NCI 60-cell line one dose antiproliferative assay; assay type: cell-based; conditions: Homo sapiens; MCF7, Breast Cancer, 10 µM one dose; read-out: Percent inhibition (cell growth inhibition %)
Text: as §1, §2

CAKI-1 = assay: NCI 60-cell line one dose antiproliferative assay; assay type: cell-based; conditions: Homo sapiens; CAKI-1, Renal Cancer, 10 µM one dose; read-out: Percent inhibition (cell growth inhibition %)
Text: as §1, §2

A498 = assay: NCI 60-cell line one dose antiproliferative assay; assay type: cell-based; conditions: Homo sapiens; A498, Renal Cancer, 10 µM one dose; read-out: Percent inhibition (cell growth inhibition %)
Text: as §1, §2

PC-3 = assay: NCI 60-cell line one dose antiproliferative assay; assay type: cell-based; conditions: Homo sapiens; PC-3, Prostate Cancer, 10 µM one dose; read-out: Percent inhibition (cell growth inhibition %)
Text: as §1, §2

MOLT-4 = assay: NCI 60-cell line one dose antiproliferative assay; assay type: cell-based; conditions: Homo sapiens; MOLT-4, Leukemia, 10 µM one dose; read-out: Percent inhibition (cell growth inhibition %)
Text: as §1, §2

SW-620 = assay: NCI 60-cell line one dose antiproliferative assay; assay type: cell-based; conditions: Homo sapiens; SW-620, Colon Cancer, 10 µM one dose; read-out: Percent inhibition (cell growth inhibition %)
Text: as §1, §2

UO-31 = assay: NCI 60-cell line one dose antiproliferative assay; assay type: cell-based; conditions: Homo sapiens; UO-31, Renal Cancer, 10 µM one dose; read-out: Percent inhibition (cell growth inhibition %)
Text: as §1, §2

SF-268 = assay: NCI 60-cell line one dose antiproliferative assay; assay type: cell-based; conditions: Homo sapiens; SF-268, CNS Cancer, 10 µM one dose; read-out: Percent inhibition (cell growth inhibition %)
Text: as §1, §2

OVCAR-5 = assay: NCI 60-cell line one dose antiproliferative assay; assay type: cell-based; conditions: Homo sapiens; OVCAR-5, Ovarian Cancer, 10 µM one dose; read-out: Percent inhibition (cell growth inhibition %)
Text: as §1, §2

SNB-19 = assay: NCI 60-cell line one dose antiproliferative assay; assay type: cell-based; conditions: Homo sapiens; SNB-19, CNS Cancer, 10 µM one dose; read-out: Percent inhibition (cell growth inhibition %)
Text: as §1, §2

UACC-62 = assay: NCI 60-cell line one dose antiproliferative assay; assay type: cell-based; conditions: Homo sapiens; UACC-62, Melanoma, 10 µM one dose; read-out: Percent inhibition (cell growth inhibition %)
Text: as §1, §2

NCI-H322M = assay: NCI 60-cell line one dose antiproliferative assay; assay type: cell-based; conditions: Homo sapiens, Non-Small Cell Lung Cancer, 10 µM one dose, read-out: Percent inhibition (cell growth inhibition %)
Text: as §1, §2

IGROV1 = assay: NCI 60-cell line one dose antiproliferative assay; assay type: cell-based; conditions: Homo sapiens, IGROV-1; IGROV1, Ovarian Cancer, 10 µM one dose; read-out: Percent inhibition (cell growth inhibition %)
Text: as §1, §2

LOX IMVI = assay: NCI 60-cell line one dose antiproliferative assay; assay type: cell-based; conditions: Homo sapiens, Melanoma, 10 µM one dose, read-out: Percent inhibition (cell growth inhibition %)
Text: as §1, §2

GSK-3β = GSK-3β (Homo sapiens, UniProt P49841); assay: GSK-3β kinase inhibition, Z'-LYTE FRET assay (Thermo Fisher SelectScreen); assay type: biochemical
Chain of GSK-3β (P49841 whole entry): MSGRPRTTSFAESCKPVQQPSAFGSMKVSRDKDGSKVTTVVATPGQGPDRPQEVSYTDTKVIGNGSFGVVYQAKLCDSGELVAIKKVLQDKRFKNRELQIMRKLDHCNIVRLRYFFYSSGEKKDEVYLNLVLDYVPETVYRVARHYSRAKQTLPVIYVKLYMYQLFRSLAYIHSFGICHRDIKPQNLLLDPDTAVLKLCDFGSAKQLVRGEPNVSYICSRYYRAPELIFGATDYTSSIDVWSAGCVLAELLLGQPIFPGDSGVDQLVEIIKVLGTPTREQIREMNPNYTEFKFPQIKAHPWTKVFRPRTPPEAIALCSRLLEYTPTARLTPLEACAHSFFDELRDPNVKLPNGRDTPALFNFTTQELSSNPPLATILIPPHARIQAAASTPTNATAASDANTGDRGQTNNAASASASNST

Compound: CN(C)c1ccc(C=NNC(=O)COc2ncnc3sc4c(c23)CCCC4)cc1 [5d, N'-(4-(Dimethylamino)benzylidene)-2-((5,6,7,8-tetrahydrobenzo [4,5]thieno[2,3-d]pyrimidin-4-yl)oxy) acetohydrazide]
- melting point: 285 °C
- inhibition at 10 µM (T-47D): 0.95%
- inhibition at 10 µM (A549/ ATCC): 1.15%
- inhibition at 10 µM (NCI-H226): 8.81%
- inhibition at 10 µM (NCI-H522): 4.74%
- inhibition at 10 µM (RXF 393): 7.97%
- inhibition at 10 µM (HS 578 T): 5.71%
- inhibition at 10 µM (MDA-MB-468): 15.8%
- inhibition at 10 µM (SNB-75): 18.8%
- inhibition at 10 µM (SK-MEL-5): 0.27%
- inhibition at 10 µM (NCI-H460): 1.04%
- inhibition at 10 µM (MCF7): 7.82%
- inhibition at 10 µM (CAKI-1): 5.26%
- inhibition at 10 µM (A498): 48.4%
- inhibition at 10 µM (PC-3): 3.93%
- inhibition at 10 µM (MOLT-4): 0.81%
- inhibition at 10 µM (SW-620): 2.39%
- inhibition at 10 µM (UO-31): 24%
- inhibition at 10 µM (SF-268): 1.44%
- inhibition at 10 µM (OVCAR-5): 8.97%
- inhibition at 10 µM (SNB-19): 3.31%
- inhibition at 10 µM (UACC-62): 5.34%
- inhibition at 10 µM (NCI-H322M): 3.69%
- inhibition at 10 µM (IGROV1): 14.4%
- inhibition at 10 µM (LOX IMVI): 2.93%
- inhibition at 10 µM (GSK-3β; 10 μM): 5%
- inhibition at 100 µM (GSK-3β; 100 μM single dose): 50%
